Measurements reported in patent US11986471B2, “Compounds and methods of use” (Tango Therapeutics, Inc., priority 2018, dated 2024).

Tests used:
[1] = molecular target: T1, PRMT5 (Homo sapiens, UniProt O14744); test: PRMT5 IC50 assay in the presence of SAM as cofactor; assay type: biochemical
T1 construct: purchased Viva (custom protein)
How it was run: (§1)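 Potency against PRMT5 is compared across cofactor states, where IC50 equals Ki×1.5 with SAM present and Ki×13.5 with MTA present.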

[2] = molecular target: T1, PRMT5; test: PRMT5 IC50 assay with no cofactor; assay type: biochemical
How it was run: as §1

[3] = molecular target: T1, PRMT5; test: PRMT5 IC50 assay in the presence of MTA as cofactor; assay type: biochemical; details: for IC50: PRMT5, MTA as cofactor
How it was run: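 Three cofactor conditions are run: SAM-bound, MTA-bound and cofactor-free enzyme. IC50 is read from each; for the SAM and MTA arms it is divided by 1.5 and 13.5 respectively to give Ki.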

[4] = test system: HAP1 MTAP-intact; test: SDMA in-cell western assay, HAP1 MTAP-intact cell line; assay type: cell-based; details: Homo sapiens
Excerpt: Table 1a also indicates IC50 values in an MTAP-isogenic cell line pair for exemplary compounds in an SDMA in-cell western assay (columns 7-8). HAP1 MTAP-intact is a cell line in which endogenous levels of MTAP are expressed, and HAP1 MTAP-deleted is an MTAP-null cell line. […] Compounds with a ratio in the SDMA in-cell western assay of equal to or greater than 3 fold are considered MTAP-selective.

[5] = test system: HAP1 MTAP-deleted; test: SDMA in-cell western assay, HAP1 MTAP-deleted cell line; assay type: cell-based; details: for IC50: Homo sapiens, HAP1 MTAP-deleted cell line; for MTAP Intact/Deleted Ratio: IC50 ratio HAP1 MTAP-intact / HAP1 MTAP-deleted
Excerpt: Table 1a also indicates IC50 values in an MTAP-isogenic cell line pair for exemplary compounds in an SDMA in-cell western assay (columns 7-8). HAP1 MTAP-intact is a cell line in which endogenous levels of MTAP are expressed, and HAP1 MTAP-deleted is an MTAP-null cell line.

[6] = ratio between Ki in the presence of SAM and Ki in the presence of MTA
[7] = ratio between the Ki in the presence of SAM and the Ki in the presence of MTA

T1 sequence (O14744 whole entry): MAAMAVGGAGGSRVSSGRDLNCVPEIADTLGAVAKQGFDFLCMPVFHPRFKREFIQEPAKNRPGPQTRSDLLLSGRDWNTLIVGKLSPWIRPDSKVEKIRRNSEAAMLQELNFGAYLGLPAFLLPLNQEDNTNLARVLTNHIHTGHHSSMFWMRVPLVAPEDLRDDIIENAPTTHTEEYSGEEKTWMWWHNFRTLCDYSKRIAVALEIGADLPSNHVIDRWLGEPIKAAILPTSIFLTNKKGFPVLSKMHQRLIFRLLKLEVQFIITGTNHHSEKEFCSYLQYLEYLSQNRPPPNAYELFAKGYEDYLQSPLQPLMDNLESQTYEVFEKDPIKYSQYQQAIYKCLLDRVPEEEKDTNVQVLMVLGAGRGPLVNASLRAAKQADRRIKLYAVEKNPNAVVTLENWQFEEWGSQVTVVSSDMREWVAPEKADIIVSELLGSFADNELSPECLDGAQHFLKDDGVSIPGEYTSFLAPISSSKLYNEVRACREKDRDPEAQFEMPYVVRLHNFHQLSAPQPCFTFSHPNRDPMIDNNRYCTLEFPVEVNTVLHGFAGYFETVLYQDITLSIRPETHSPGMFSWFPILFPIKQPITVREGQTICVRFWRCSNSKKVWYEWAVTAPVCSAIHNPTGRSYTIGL
T1 sequence (Q9BQA1 whole entry partner): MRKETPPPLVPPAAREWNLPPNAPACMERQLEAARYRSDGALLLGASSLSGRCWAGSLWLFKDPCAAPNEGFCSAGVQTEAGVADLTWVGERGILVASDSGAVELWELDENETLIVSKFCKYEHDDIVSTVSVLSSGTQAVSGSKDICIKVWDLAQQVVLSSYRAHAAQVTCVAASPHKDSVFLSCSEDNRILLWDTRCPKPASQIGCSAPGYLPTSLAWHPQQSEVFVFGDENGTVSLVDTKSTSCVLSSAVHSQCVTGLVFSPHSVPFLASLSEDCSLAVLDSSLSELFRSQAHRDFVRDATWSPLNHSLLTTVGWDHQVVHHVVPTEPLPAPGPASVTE

IC50 [1] [nM] | IC50 ([2]; read-out: No Co-factor IC50) [nM] | IC50 [3] [nM] | IC50 [4] [nM] | IC50 [5] [nM] | IC50 [2] [nM] | Structure (SMILES) | SAM/MTA Ratio [3, 6] | MTAP Intact/Deleted Ratio [5] | SAM/MTA Ratio [3, 7]
50 to 500 | ≥ 5000 | 50 to 500 | ≥ 10000 | 1000 to 10000 | – | COCCN(C)c1nc(NC2COC2)cc(C(=O)NC[C@H](O)CN2CCc3c(ccc(OCc4ocnc4C)c3C)C2)n1 [Compound 398, N-[(2S)-2-hydroxy-3-{5-methyl-6-[(4-methyl-1,3-oxazol-5-yl)methoxy]-1,2,3,4-tetrahydroisoquinolin-2-yl}propyl]-2-[(2-methoxyethyl)(methyl)amino]-6-[(oxetan-3-yl)amino]pyrimidine-4-carboxamide] | A (a Ki ratio greater than or equal to 10 fold between the Ki in the presence of SAM and the Ki in the presence of MTA) | B* (an IC50 ratio greater than or equal to 3 fold but lower than 10 fold between the IC50 in the HAP1 MTAP-intact cell line and the HAP1 MTAP-deleted cell line) | –
50 to 500 | 500 to 5000 | 50 to 500 | 1000 to 10000 | 1000 to 10000 | – | CCN(C)c1nc(NC2COC2)cc(C(=O)NC[C@H](O)CN2CCc3cc(OCc4cnco4)ccc3C2)n1 [Compound 289] | A (a Ki ratio greater than or equal to 10 fold between the Ki in the presence of SAM and the Ki in the presence of MTA) | B* (an IC50 ratio greater than or equal to 3 fold but lower than 10 fold between the IC50 in the HAP1 MTAP-intact cell line and the HAP1 MTAP-deleted cell line) | –
50 to 500 | 500 to 5000 | 50 to 500 | < 1000 | < 1000 | – | CC(=O)N1CC(Nc2cc(C(=O)NC[C@H](O)CN3CCc4cc(OCc5cnco5)ccc4C3)nc(C(C)C)n2)C1 [Compound 349, (S)-6-((1-acetylazetidin-3-yl)amino)-N-(2-hydroxy-3-(6-(oxazol-5-ylmethoxy)-3,4-dihydroisoquinolin-2(1H)-yl)propyl)-2-isopropylpyrimidine-4-carboxamide] | A (a Ki ratio greater than or equal to 10 fold between the Ki in the presence of SAM and the Ki in the presence of MTA) | C* (an IC50 ratio of less than 3 fold between the IC50 in the HAP1 MTAP-intact cell line and the HAP1 MTAP-deleted cell line) | –
500 to 5000 | – | 50 to 500 | ≥ 10000 | ≥ 10000 | ≥ 5000 | CCN(C)c1cc(C(=O)NC[C@H](O)CN2CCc3c(ccc(OCc4cnco4)c3Cl)C2)cc(NC2CCC2)n1 [Compound 445, (S)—N-(3-(5-chloro-6-(oxazol-5-ylmethoxy)-3N-dihydroisoquinolin-2(1H)-yl)-2-hydroxypropyl)-2-(cyclobutylamino)-6-(ethyl(methyl)amino)isonicotinamide] | – | C* (an IC50 ratio of less than 3 fold between the IC50 in the HAP1 MTAP-intact cell line and the HAP1 MTAP-deleted cell line) | A (a Ki ratio greater than or equal to 10 fold between the Ki in the presence of SAM and the Ki in the presence of MTA)
50 to 500 | 500 to 5000 | 50 to 500 | 1000 to 10000 | 1000 to 10000 | – | O=C(NC[C@H](O)CN1CCc2cc(OCc3cnco3)ccc2C1)c1cc(NC2CCC2)nc(N2CCNCC2)c1 [Compound 422] | A (a Ki ratio greater than or equal to 10 fold between the Ki in the presence of SAM and the Ki in the presence of MTA) | C* (an IC50 ratio of less than 3 fold between the IC50 in the HAP1 MTAP-intact cell line and the HAP1 MTAP-deleted cell line) | –
500 to 5000 | – | 50 to 500 | ≥ 10000 | ≥ 10000 | ≥ 5000 | Cc1c(OCc2cnco2)ccc2c1CCN(C[C@@H](O)CNC(=O)c1ccnc(NC3CCC3C3CCC3)c1)C2 (stereo partly drawn) [Compound 476, 2-([1,1′-bi(cyclobutan)]-2-ylamino)-N—((S)-2-hydroxy-3-(5-methyl-6-(oxazol-5-ylmethoxy)-3,4-dihydroisoquinolin-2(1H)-yl)propyl)isonicotinamide] | – | C* (an IC50 ratio of less than 3 fold between the IC50 in the HAP1 MTAP-intact cell line and the HAP1 MTAP-deleted cell line) | A (a Ki ratio greater than or equal to 10 fold between the Ki in the presence of SAM and the Ki in the presence of MTA)
50 to 500 | – | 50 to 500 | 1000 to 10000 | 1000 to 10000 | 500 to 5000 | CC(=O)N1CCC(Nc2cc(C(=O)NC[C@H](O)CN3CCc4cc(OCc5ocnc5C)c(F)cc4C3)ncn2)CC1 [Compound 576, 6-[(1-acetyl-4-piperidyl)amino]-N-[(2S)-3-[7-fluoro-6-[(4-methyloxazol-5-yl)methoxy]-3N-dihydro-1H-isoquinolin-2-yl]-2-hydroxy-propyl]pyrimidine-4-carboxamide] | – | B* (an IC50 ratio greater than or equal to 3 fold but lower than 10 fold between the IC50 in the HAP1 MTAP-intact cell line and the HAP1 MTAP-deleted cell line) | A (a Ki ratio greater than or equal to 10 fold between the Ki in the presence of SAM and the Ki in the presence of MTA)
50 to 500 | ≥ 5000 | 50 to 500 | ≥ 10000 | ≥ 10000 | – | Cc1ncoc1COc1ccc2c(c1Br)CCN(C[C@@H](O)CNC(=O)c1ccnc(NC3CCCC3)c1)C2 [Compound 350, (S)—N-(3-(5-bromo-6-((4-methyloxazol-5-yl)methoxy)-3,4-dihydroisoquinolin-2(1H)-yl)-2-hydroxypropyl)-2-(cyclopentylamino)isonicotinamide] | A (a Ki ratio greater than or equal to 10 fold between the Ki in the presence of SAM and the Ki in the presence of MTA) | C* (an IC50 ratio of less than 3 fold between the IC50 in the HAP1 MTAP-intact cell line and the HAP1 MTAP-deleted cell line) | –
50 to 500 | ≥ 5000 | 50 to 500 | < 1000 | < 1000 | – | Cc1ncoc1COc1ccc2c(c1)CCN(C[C@@H](O)CNC(=O)c1cc(NC3CCCCC3)ncn1)C2 [Compound 388, 6-(cyclohexylamino)-N-[(2S)-2-hydroxy-3-{6-[(4-methyl-1,3-oxazol-5-yl)methoxy]-1,2,3,4-tetrahydroisoquinolin-2-yl}propyl]pyrimidine-4-carboxamide] | A (a Ki ratio greater than or equal to 10 fold between the Ki in the presence of SAM and the Ki in the presence of MTA) | B* (an IC50 ratio greater than or equal to 3 fold but lower than 10 fold between the IC50 in the HAP1 MTAP-intact cell line and the HAP1 MTAP-deleted cell line) | –
50 to 500 | – | 50 to 500 | 1000 to 10000 | 1000 to 10000 | 500 to 5000 | CCC(=O)N1CC(Nc2cc(C(=O)NC[C@H](O)CN3CCc4cc(OCc5cnco5)ccc4C3)ccn2)C1 [Compound 469, N-[(2S)-2-hydroxy-3-[6-(oxazol-5-ylmethoxy)-3,4-dihydro-1H-isoquinolin-2-yl]propyl]-2-[(1-propanoylazetidin-3-yl)amino]pyridine-4-carboxamide] | – | C* (an IC50 ratio of less than 3 fold between the IC50 in the HAP1 MTAP-intact cell line and the HAP1 MTAP-deleted cell line) | A (a Ki ratio greater than or equal to 10 fold between the Ki in the presence of SAM and the Ki in the presence of MTA)
50 to 500 | 500 to 5000 | 50 to 500 | 1000 to 10000 | – | – | Cc1ncoc1COc1ccc2c(c1)CCN(C[C@@H](O)CNC(=O)c1ccnc(NC3CCN(C(=O)C(C)(C)C)CC3)c1)C2 [Compound 640, (S)—N-(2-hydroxy-3-(6-((4-methyloxazol-5-yl)methoxy)-3,4-dihydroisoquinolin-2(1H)-yl)propyl)-2-((1-pivaloylpiperidin-4-yl)amino)isonicotinamide] | A (a Ki ratio greater than or equal to 10 fold between the Ki in the presence of SAM and the Ki in the presence of MTA) | – | –
50 to 500 | 500 to 5000 | 50 to 500 | < 1000 | – | – | Cc1ncoc1COc1ccc2c(c1)CCN(C[C@@H](O)CNC(=O)c1cc(NC3CCC3)nc(N3CCCCC3)n1)C2 [Compound 639, (S)-6-(cyclobutylamino)-N-(2-hydroxy-3-(6-((4-methyloxazol-5-yl)methoxy)-3,4-dihydroisoquinolin-2(1H)-yl)propyl)-2-(piperidin-1-yl)pyrimidine-4-carboxamide] | A (a Ki ratio greater than or equal to 10 fold between the Ki in the presence of SAM and the Ki in the presence of MTA) | – | –
50 to 500 | 500 to 5000 | < 50 | < 1000 | – | – | CC(=O)N1CCC(Nc2cc(C(=O)NC[C@H](O)CN3CCc4cc(OCc5ocnc5C)ccc4C3)cc(C3CCCCC3)n2)CC1 [Compound 641, (S)-2-((1-acetylpiperidin-4-yl)amino)-6-cyclohexyl-N-(2-hydroxy-3-(6-((4-methyloxazol-5-yl)methoxy)-3,4-dihydroisoquinolin-2(1H)-yl)propyl)isonicotinamide] | A (a Ki ratio greater than or equal to 10 fold between the Ki in the presence of SAM and the Ki in the presence of MTA) | – | –
